Tests used:
[1] = system: lyso-PA acyl transferase (LPAAT); test: Inhibition of LPAAT shown by the invention assay; type: cell-based, human
Protocol: (§1) This example also illustrates the method of the invention.
(§2) Human glomerular mesangial cells were incubated with IL-1 for various time periods of 5-60 seconds and the cells were fixed in ice-cold methanol, and the lipids extracted using chloroform:methanol 2:1 (v/v). It is very important that the fixing/extraction process be conducted quickly so that the decomposition of unstable intermediates is halted.
(§3) The extracts were subjected to HPLC on a Rainin mu-Porasil column with a 3:4 hexane:propanol organic carrier and a 1-10% water gradient during the first 10 minutes of separation. The relative concentration of each lipid species is determined using absorption at 206 nm (A206), which follows unsaturated acyl content of lipid species. […] The absolute mass of each lipid species is determined by isolation of the lipid using a fraction collector, repurification on the HPLC column. Determination of phospholipid phosphorus is as nmoles/mg cellular protein. Protein concentration is determined using the Bradford technique.
(§4) Thus, the lyso PA that accumulates contains high levels of unsaturated fatty acids. Pentoxifylline in a dose range greater than 500 μM results in inhibition both of phosphatidate phosphohydrolase and of lyso PA acyl transferase.

[2] = system: phosphatidic acid phosphohydrolase (PAPH); test: Inhibition of PAPH shown by the invention assay; type: cell-based, human
Protocol: as §1, §2, §3, §4

[3] = system: NIH3T3 cell line (D5C3) transformed with temperature-sensitive v-abl; test: Blocking transformed phenotype of D5C3 cells; type: cell-based, murine
[4] = system: Human glomerular mesangial cells stimulated with IL-1; test: Invention assay: HPLC of lipids (PA, DAG) from mesangial cells stimulated with IL-1; type: cell-based
Protocol: The compounds of Formula I are shown to modulate the effects of primary stimuli which elevate levels of the relevant subspecies of PA and DAG using the assay system of the invention. In general for the assay, the cells to be tested are first incubated with the primary stimulating agent for various time periods and fixed in ice-cold methanol. The lipids are extracted using, for example, chloroform:methanol 2:1 (v/v), and the extracts are then subjected to HPLC as described by Bursten and Harris, Biochemistry (1991). In this method, a Rainin mu-Porasil column is used with a 3:4 hexane:propanol organic carrier and a 1-10% water gradient during the first 10 minutes of separation. Detection of the peaks in the elution pattern is by absorption in the range of ultraviolet which detects isolated double bonds. Thus, the relevant peaks of unsaturated PA and DAG are shown in the elution pattern. It is important to note that the assay method permits discrimination between various forms of PA and DAG so that those relevant to the pathway affected by the compounds of Formula I can be measured directly. Confirmation of the nature of the acyl substituents of these components is accomplished using fast-atom bombardment mass spectroscopy. Thus, the relevant unsaturated (non-arachidonic) PA and DAG subspecies may be detected. The time periods employed are 5-60 seconds after stimulation with the primary stimulus, such as a cytokine. This technique permits assessment of the levels of various lipid components as a function of time.
To test the effect of the compounds of the invention, the candidate compound is included in the initial incubation at various concentrations. Fixing, extraction and HPLC are conducted as above. The effect of the candidate compound is then reflected in a lowering of the relevant PA and DAG levels as compared to the cells without candidate in the control as illustrated hereinbelow.
as §2, §3
After contacting HMC with 10^-11 M interleukin-1, a marked redistribution of phospholipids and metabolites is apparent within 5 seconds (FIG. 2), including a significant increase in PA and DAG. FIGS. 3 and 4 show the HPLC after stimulation with IL-1 for 15 seconds and 60 seconds, respectively. PA has been converted into DAG by action of phosphatidate phosphohydrolase at 15 seconds; but the PA peak reappears after 60 seconds.
The HMC were also reacted with 10^-11 M IL-1 in the presence of various concentrations of pentoxifylline. […] A large peak representing pentoxifylline is present.

[5] = system: NIH3T3 murine fibroblast cells transformed with a mutated K-ras; test: Growth and soft agar colonies of K-ras transformed NIH3T3 cells in vitro; type: cell-based; details: concentrations at or greater than 0.5 mM
Protocol: Additionally, NIH3T3 murine fibroblast cells transformed with a mutated K-ras (codon 12 Gly-Val) were tested in vitro and in nude mice.

[6] = system: SV40 T-antigen-transformed human kidney mesangial cells; test: Tritiated thymidine uptake of transformed mesangial cells with rhIL-1 or TNFα; type: cell-based
Protocol: SV40 T-antigen-transformed human kidney mesangial cells were cultured under standard conditions with rhIL-1 or with TNFα with and without pentoxifylline (PTX). Transformed mesangial cells grow independently of added growth factors, but IL-1 and TNFα are the normal proliferative signals for mesangial cells. As was shown in Example 1, when IL-1 is added to kidney mesangial cells, within 30 seconds LPAAT and PAPH are activated; the effect of both of these enzymes is inhibited by pentoxifylline at 1 mM. In this experiment, the growth of the treated cells was measured using tritiated thymidine uptake.

[7] = system: human leukemic cell line (Mo7e); test: GM-CSF stimulated colony formation of Mo7e cells; type: cell-based; details: semisolid medium, colonies counted after 10 days
Protocol: The human leukemic cell line (Mo7e) is dependent on added granulocyte-macrophage colony-stimulating factor (GM-CSF) for growth. Mo7e cells were cultured in semisolid medium with and without pentoxifylline (PTX) and rhGM-CSF. Colonies were counted 10 days after culture initiation under an inverted microscope. […] PTX thus prevents the up-regulation of activation-associated genes which inhibit proliferation.

[8] = system: TNFα transcripts in U937 cells; test: Northern blot of TNFα transcripts in LPS-induced U937 cells; type: cell-based; details: 1 mM PTX, LPS three hours
[9] = system: IL-6 transcripts in bone marrow stromal cells; test: Northern blot of IL-6 transcripts in bone marrow stromal cells; type: cell-based; details: three-hour exposure, increasing concentrations
[10] = system: Steel factor transcripts in marrow stromal cell lines; test: Northern blot of Steel factor transcripts in marrow stromal cell lines; type: cell-based; details: three-hour incubation, passaged or cloned (CDCL) lines
CD3-positive lymphocytes = test: Proliferation and transcripts of anti-CD3 stimulated lymphocytes; type: cell-based
Protocol: In these experiments, freshly isolated, CD2-positive cells were stimulated by a solid-phase monoclonal antibody to acquire a CD3 phenotype, and then PTX was added. […] The block in proliferation could not be overcome by addition of either tumor necrosis factor (FIGS. 20 and 21) or IL-1 (FIG. 21). […] The cytokines and PTX were added at culture inception and the cells were harvested after 5 days.

[11] = system: IL-8 mRNA in U937 and THP1; test: Northern blot of IL-8 mRNA in monocytic cell lines induced by lipopolysaccharide or GM-CSF; type: cell-based
Protocol: The murine fibrosarcoma cell line, L929, was also tested as an indicator for assays of TNF cytotoxicity. Cell growth was assayed by crystal violet staining using optical density as a measure of growth. […] Finally, two monocytic cell lines, U937 and THP1, were used to test the effect of pentoxifylline on the […] of the cytokine IL-8. The cell lines in culture were induced to upregulate IL-8 production by lipopolysaccharide or GM-CSF.

T cell proliferation = details: Singer et al., cited from earlier work
[12] = system: patients undergoing allogeneic bone marrow transplant; test: Preliminary study in allogeneic bone marrow transplant patients; type: in vivo, human; details: first 30 days post-transplant
Protocol: A preliminary study was conducted on patients undergoing allogeneic bone marrow transplant for multiple myeloma, for lymphoid malignancies, or for advanced stage CML or AML. Prednisone is often administered as an immunosuppressant in all experimental groups. In the study, these patients received the drugs for a minimum of 3 days to a maximum of 7 days prior to starting their preparative regimen while in the outpatient department according to the following regimen:
PTX: 600 mg p.o. qid at 9 am, 1 pm, 5 pm and 9 pm;
CIPRO: 500 mg p.o.b.i.d.; and
PD: 0.5 mg/kg b.i.d. (total 1 mg/kg/day changed to methylprednisolone at an equivalent dose starting on day-1).
For the duration of therapy, the patients are continued on the study drugs as follows:
PTX: until day +20 post-transplant then tapered 600 mg/day until off;
CIPRO: until day 30 post-transplant or day of discharge if sooner than day 30; and
PD: tapered starting on day 0 over 14 days until off.
All patients in these studies received PD and cyclosporin as GVHD prophylaxis.

[13] = system: recipients of matched allogeneic donor marrow; test: Matched allogeneic donor trial; type: in vivo, human
Excerpt: (§5) They are given steroids to reduce inflammation. […] In this group of patients, GVHD approaches 90%.
Again, engraftment was improved, toxicity diminished and survival improved as compared either to standard treatment or to treatment with GM-CSF.

[14] = system: recipients of marrow from unrelated donors; test: Unrelated donor trial; type: in vivo, human
Excerpt: as §5
Again, the general results were improved as compared to either standard therapy or GM-CSF.

[15] = day 0-28, median (mean ± standard deviation)
[16] = days 0-28, median (mean ± standard deviation)
[17] = median (mean ± standard deviation)

Compound: C[C@@H](O)CCCCn1c(=O)c2c(ncn2C)n(C)c1=O [CT1501 R]
- block of lyso-PA AT [1]: blocks
- block of Ptd Phydr [2]: blocks

Compound: O=C(O)c1cn(C2CC2)c2cc(N3CCNCC3)c(F)cc2c1=O [Ciprofloxacin]
- inhibition of the transformed phenotype ([3]; ciprofloxacin 50 μg/ml, pentoxifylline 1 mM): significant effect

Compound: CC(=O)CCCCn1c(=O)c2c(ncn2C)n(C)c1=O [Pentoxifylline]
- elevation of PA and DAG by IL-1 ([4]; 1 mM, all time points (15-60 seconds)): abolishes
- cyclical formation of PA, and conversion of PA to DAG ([4]; 10^-11 M IL-1, 100 μM pentoxifylline, 15- and 60-second points): no change
- conversion of PA to DAG ([4]; 10^-11 M IL-1, 500 μM pentoxifylline, 15 second time point): slight attenuation
- elevation in levels of unsaturated, non-arachidonic PA and of the DAG derived from it ([4]; IL-1 stimulation, concentrations greater than 500 μM): obviate
- LPAAT activated by IL-1 ([1]; 1 mM): inhibited
- inhibition of lyso PA acyl transferase ([1]; dose range greater than 500 μM): inhibition
- inhibitory effect on LPAAT ([1]; relative to 0.5 mM): evident only at higher concentrations
- PAPH activated by IL-1 ([2]; 1 mM): inhibited
- inhibition of phosphatidate phosphohydrolase ([2]; dose range greater than 500 μM): inhibition
- appearance of cells ([3]; 1 mM, 33° C., 5 days): predominantly non-transformed, fibroblastic appearance
- growth ([5]; in vitro): inhibition of growth
- anchorage-independent growth ([5]; soft agar): suppression
- growth stimulated by IL-1 ([6]; FIG. 13A): arrested growth
- proliferative effect of TNF ([6]; FIG. 13B): enhances
- GM-CSF-stimulated growth of colonies [7]: enhanced
- TNF RNA obtained in response to LPS stimulation [8]: undetectable level
- production of IL-6 transcripts [9]: increased production
- levels of Steel factor transcripts [10]: increases
- thymidine uptake (CD3-positive lymphocytes; CD2-positive T-cells, monoclonal antibody 64.1, 5 days, FIG. 21): diminished
- TNF transcripts (CD3-positive lymphocytes; Northern blot, FIG. 19A): suppression
- IL-2 receptor transcripts (CD3-positive lymphocytes; Northern blot, FIG. 19C): suppression
- synthesis of IL-8 (mRNA) [11]: did not inhibit
- expression of cell surface antigens (HLA-DR, CD71, CD25, CD69) (T cell proliferation; MLR-stimulated lymphocytes): decreased
- blocking a proliferative response (T cell proliferation; PTX added after triggering lymphocytes in a mixed lymphocyte culture): still effective

Compound: Cc1nc2sccn2c(=O)c1CCN1CCC(=C(c2ccccc2)c2ccc(F)cc2)CC1 [R 50922]
- HPLC pattern (reappearance of PA after 60 seconds) ([4]; IL-1 stimulation): does not alter

Compound: GM-CSF: granulocyte-macrophage colony-stimulating factor
- platelet transfusion requirements [12]: 87±69 units of platelets
- red blood cell requirements [12]: 24.7±24 units of RBCs
- Day 100 Survival [13]: 69%
- Max Creat [13, 15]: 1.5 (1.8 ± 1.4) mg/dL
- Units platelets transfused [13, 15]: 74.0 (87 ± 74) units
- Bili ≥5.0 mg/dL (patients) ([13]; days 0-28): 44%
- Creat ≥2.0 mg/dL (patients) ([13]; days 0-28): 22%
- Infection 0-28 (patients with positive bacterial blood cultures) ([13]; days 0-28): 14%
- Max Bili [13, 16]: 5.0 (8 ± 10) mg/dL
- ANC ≤100 (days below 100 cells/uL) [13, 17]: 5.0 (6 ± 4) days
- ANC ≥100 (day on which ANC ≥100 cells/uL on two consecutive days) [13, 17]: 9.0 (8 ± 6) day
- ANC ≥1,000 (day on which ANC ≥1,000 cells/uL on two consecutive days) [13, 17]: 14.0 (16 ± 9) day
- Day discharge [13, 17]: 24.0 (26 ± 13) day
- Last RBC day (first day RBC count ≥30% for 7 consecutive days untransfused) [13, 17]: 59.0 (63 ± 39) day
- Last plt day [13, 17]: 23.0 (17 ± 11) day
- Max Creat [14, 15]: 1.1 (1.4 ± 1.2) mg/dL
- Units platelets transfused [14, 15]: 92.0 (90 ± 42) units
- Bili ≥5.0 mg/dL (patients) ([14]; days 0-28): 46%
- Creat ≥2.0 mg/dL (patients) ([14]; days 0-28): 17%
- Infection 0-28 ([14]; days 0-28): 7%
- Max Bili [14, 16]: 5.5 (7 ± 7) mg/dL
- ANC ≤100 (days below 100 cells/uL) [14, 17]: 12 (12 ± 7) days
- ANC ≥100 [14, 17]: 18.5 (18 ± 6) day
- ANC ≥500 [14, 17]: 22.5 (23 ± 4) day
- ANC ≥1,000 [14, 17]: 26.0 (26 ± 5) day
- Day initial discharge [14, 17]: 37.0 (37 ± 14) day
- Last plt day [14, 17]: 24.5 (26 ± 6) day

Source: patent US5856115A, “Assay for identification therapeutic agents” (priority 1994, dated 1999)
